ChEMBL document CHEMBL1201862, “PubChem BioAssay data set” (2004)
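Cultured in 96-well plates, cells were exposed to test compound for 48 hours across five concentrations. GI50 marks 50% less growth.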 Calls of active or inactive are those of the source. Rule as the data show it: active = GI50 up to about 1.1 µM and inactive = higher.

Tests used:
Assay in all cases: NCI-60 cell line screen, 48 h
[1] = test system: A498
[2] = test system: A549
[3] = test system: CCRF-CEM
[4] = test system: COLO 205
[5] = test system: EKVX
[6] = test system: HOP-62
[7] = test system: Hs-578T
[8] = test system: M14
[9] = test system: NCI-H226
[10] = test system: NCI-H460
[11] = test system: OVCAR-5
[12] = test system: RPMI-8226
[13] = test system: SK-MEL-28
[14] = test system: SK-OV-3
[15] = test system: SNB-75
[16] = test system: SR
[17] = test system: SW-620
[18] = test system: U-251
[19] = test system: UO-31

Compound | GI50 [1] | GI50 [2] | GI50 [3] | GI50 [4] | GI50 [5] | GI50 [6] | GI50 [7] | GI50 [8] | GI50 [9] | GI50 [10] | GI50 [11] | GI50 [12] | GI50 [13] | GI50 [14] | GI50 [15] | GI50 [16] | GI50 [17] | GI50 [18] | GI50 [19]
CNC(=O)OCc1c(COC(=O)NC)c(C)n(-c2ccc(Br)cc2)c1C | 1.36 µM (inactive) | 16.9 µM (inactive) | 4.85 µM (inactive) | 13.4 µM (inactive) | 27.3 µM (inactive) | 13.2 µM (inactive) | 16.2 µM (inactive) | 13.2 µM (inactive) | 1.24 µM (inactive) | 8.2 µM (inactive) | 12.9 µM (inactive) | 11 µM (inactive) | 16.4 µM (inactive) | 10.4 µM (inactive) | 4.17 µM (inactive) | 1.38 µM (inactive) | 10.7 µM (inactive) | 10.7 µM (inactive) | 5.57 µM (inactive)
CCCCCCCCCCCCCCCCCCOC(COP(=O)(O)OCC1OC(n2cc(F)c(=O)[nH]c2=O)CC1O)COP(=O)(O)OCC1OC(n2ccc(N)nc2=O)C(O)C1O (stereo unspecified) | 0.485 µM (active) | 2.81 µM (inactive) | 4.81 µM (inactive) | 20.8 µM (inactive) | > 100 µM (inactive) | 1.95 µM (inactive) | > 100 µM (inactive) | 6.34 µM (inactive) | > 87.1 µM (inactive) | 0.159 µM (active) | 66.8 µM (inactive) | 10.9 µM (inactive) | 64.6 µM (inactive) | > 71.3 µM (inactive) | 22.6 µM (inactive) | 0.925 µM (active) | 60.7 µM (inactive) | 7.13 µM (inactive) | 9.64 µM (inactive)
CCCCCCOc1ccc(C(=O)NO)cc1 | 13 µM (inactive) | 14.3 µM (inactive) | 0.362 µM (active) | 9.51 µM (inactive) | 15 µM (inactive) | 11.8 µM (inactive) | 19.6 µM (inactive) | 11.9 µM (inactive) | 9.46 µM (inactive) | 4.68 µM (inactive) | 11.6 µM (inactive) | 2.82 µM (inactive) | 16 µM (inactive) | 10.5 µM (inactive) | 13.4 µM (inactive) | 1.19 µM (inactive) | 5.02 µM (inactive) | 10.4 µM (inactive) | 6.08 µM (inactive)
COC(=O)C1=C(C(=O)Nc2cccnc2Cl)N(c2ccc(OC)cc2[N+](=O)[O-])C(c2ccc(C)cc2)=CC1c1ccc(OC)cc1OC (stereo unspecified) | 16.7 µM (inactive) | 6.3 µM (inactive) | 4.53 µM (inactive) | 15.5 µM (inactive) | 21.9 µM (inactive) | 23.3 µM (inactive) | 25.3 µM (inactive) | 13.7 µM (inactive) | 12.9 µM (inactive) | 23.9 µM (inactive) | 29 µM (inactive) | 2.37 µM (inactive) | 59.6 µM (inactive) | 23.7 µM (inactive) | 14.2 µM (inactive) | 2.85 µM (inactive) | 4.66 µM (inactive) | 6.41 µM (inactive) | 12.4 µM (inactive)
O=c1[nH]c2nccn2c(Cl)c1Br | 76 µM (inactive) | > 100 µM (inactive) | 20.5 µM (inactive) | 18.6 µM (inactive) | 19.7 µM (inactive) | > 100 µM (inactive) | 26.9 µM (inactive) | 16.8 µM (inactive) | 35.2 µM (inactive) | 24.7 µM (inactive) | 23.4 µM (inactive) | 54.3 µM (inactive) | 19.4 µM (inactive) | 29.6 µM (inactive) | 33.7 µM (inactive) | 22.4 µM (inactive) | 26.6 µM (inactive) | 17.3 µM (inactive) | 60 µM (inactive)
CCCC1=C(OC)C(=O)c2c(C)cc(Cl)nc2C1=O | 20.2 µM (inactive) | 13.6 µM (inactive) | 0.286 µM (active) | 7.93 µM (inactive) | 7.66 µM (inactive) | 15.5 µM (inactive) | 3.75 µM (inactive) | 7 µM (inactive) | 16.7 µM (inactive) | 13.7 µM (inactive) | 14.5 µM (inactive) | 2.16 µM (inactive) | 6.81 µM (inactive) | 17 µM (inactive) | 7.62 µM (inactive) | 2.11 µM (inactive) | 3.24 µM (inactive) | 6.07 µM (inactive) | 13.5 µM (inactive)
CCCCCCCCCCCCCCCCCCNc1ccn(C2OC(COP(=O)(O)OCC3OC(n4cc(F)c(NCCCCCCCCCCCCCCCCCC)nc4=O)CC3O)C(O)C2O)c(=O)n1 (stereo unspecified) | 25.8 µM (inactive) | 82.8 µM (inactive) | > 100 µM (inactive) | > 100 µM (inactive) | > 100 µM (inactive) | > 100 µM (inactive) | > 100 µM (inactive) | > 100 µM (inactive) | > 100 µM (inactive) | > 100 µM (inactive) | > 100 µM (inactive) | 66.4 µM (inactive) | > 100 µM (inactive) | > 100 µM (inactive) | > 100 µM (inactive) | > 100 µM (inactive) | > 100 µM (inactive) | 67 µM (inactive) | > 100 µM (inactive)
CC(=O)OC(Cc1cc(C=C(C(F)(F)F)C(F)(F)F)cc(C)n1)(C(F)(F)F)C(F)(F)F | 1.75 µM (inactive) | 2.88 µM (inactive) | 0.217 µM (active) | 0.759 µM (active) | 2.01 µM (inactive) | 1.79 µM (inactive) | 1.95 µM (inactive) | 1.57 µM (inactive) | 1.78 µM (inactive) | 1.99 µM (inactive) | 2.18 µM (inactive) | 0.656 µM (active) | 1.38 µM (inactive) | 19.5 µM (inactive) | 2.03 µM (inactive) | 0.352 µM (active) | 1.28 µM (inactive) | 1.55 µM (inactive) | 1.64 µM (inactive)
C=C(CCC(=O)N(CCc1c[nH]c2ccccc12)C(=O)c1ccccc1CSCC)C(=O)OC | 49.2 µM (inactive) | 27.1 µM (inactive) | 5.4 µM (inactive) | 20.9 µM (inactive) | 48.2 µM (inactive) | > 69.2 µM (inactive) | 44.5 µM (inactive) | 44.6 µM (inactive) | 53.7 µM (inactive) | 32.2 µM (inactive) | > 100 µM (inactive) | 7.59 µM (inactive) | > 100 µM (inactive) | > 71.3 µM (inactive) | > 83.8 µM (inactive) | > 100 µM (inactive) | 49.9 µM (inactive) | 10.3 µM (inactive) | 27.7 µM (inactive)
O=C1Cc2c(-c3ccccc3)cc(-c3ccc4ccccc4c3)nc2-c2ccccc2N1 | 12.7 µM (inactive) | 14.9 µM (inactive) | > 100 µM (inactive) | 31.9 µM (inactive) | 7.16 µM (inactive) | 7.52 µM (inactive) | 2.96 µM (inactive) | 9.2 µM (inactive) | 8.45 µM (inactive) | 11.4 µM (inactive) | 24.7 µM (inactive) | 17.7 µM (inactive) | > 100 µM (inactive) | 6.64 µM (inactive) | 0.307 µM (active) | 39.3 µM (inactive) | 29.2 µM (inactive) | 16.4 µM (inactive) | 17.3 µM (inactive)
Nc1nc(=S)n(-c2ccc(Cl)cc2)c2nc3ccccc3cc12 | > 100 µM (inactive) | 97.7 µM (inactive) | 42.4 µM (inactive) | 36 µM (inactive) | 15.3 µM (inactive) | 55.8 µM (inactive) | 83.2 µM (inactive) | 84.9 µM (inactive) | 50.6 µM (inactive) | 46.2 µM (inactive) | 83.2 µM (inactive) | 59.6 µM (inactive) | > 100 µM (inactive) | 22.7 µM (inactive) | 43.5 µM (inactive) | 16.1 µM (inactive) | 95.5 µM (inactive) | 48.9 µM (inactive) | 33.6 µM (inactive)
O=C(O)c1ccccc1C1CCCc2c1[nH]c1ccccc21 (stereo unspecified) | 30.2 µM (inactive) | 79.3 µM (inactive) | 20 µM (inactive) | 74 µM (inactive) | 20.3 µM (inactive) | > 100 µM (inactive) | 86.9 µM (inactive) | 53.5 µM (inactive) | > 100 µM (inactive) | 69.7 µM (inactive) | > 100 µM (inactive) | 28.8 µM (inactive) | 96.6 µM (inactive) | > 100 µM (inactive) | 12.7 µM (inactive) | 47 µM (inactive) | 57.1 µM (inactive) | 81.8 µM (inactive) | 58.5 µM (inactive)
O=C(O)c1cc2c(cc1S(=O)(=O)O)C1C(C3C2C2(Cl)C(Cl)=C(Cl)C3(Cl)C2(Cl)Cl)C2(Cl)C(Cl)=C(Cl)C1(Cl)C2(Cl)Cl (stereo unspecified) | 97.1 µM (inactive) | 72.9 µM (inactive) | 0.173 µM (active) | 44.1 µM (inactive) | 30.2 µM (inactive) | 26.2 µM (inactive) | 45.2 µM (inactive) | 37.3 µM (inactive) | 23.4 µM (inactive) | 34.6 µM (inactive) | 23.3 µM (inactive) | 32.6 µM (inactive) | 37.1 µM (inactive) | 39.9 µM (inactive) | 47.6 µM (inactive) | 24.7 µM (inactive) | 37.2 µM (inactive) | 38.3 µM (inactive) | 44.6 µM (inactive)
O=C(O)/C=C/c1c2ccc(=O)c(O)c-2oc2c(O)c(O)ccc12 | > 100 µM (inactive) | 32.3 µM (inactive) | 9.59 µM (inactive) | > 100 µM (inactive) | 24.9 µM (inactive) | 23.4 µM (inactive) | 58.6 µM (inactive) | 47.4 µM (inactive) | 70.8 µM (inactive) | > 100 µM (inactive) | 78.2 µM (inactive) | 23.2 µM (inactive) | > 100 µM (inactive) | 98.4 µM (inactive) | 48 µM (inactive) | 31.8 µM (inactive) | 20.7 µM (inactive) | 16.1 µM (inactive) | 33.9 µM (inactive)
